Test results reported in US20080051429A1, “USE OF 4-AMINO-PIPERIDINES FOR TREATING SLEEP DISORDERS” (priority 2006, published 2008).
Structures can show the parent of a compound that is named as a salt. Where two headings read alike, the source gives them in different places. Blank lines part the entries; values can stand above or below the compound they belong to.

Target: T1, 5-HT2A receptor (Homo sapiens, UniProt P28223)
T1 construct: expressed in transfected cells; host or cells: NIH3T3 cells, pSI expression vector
T1 sequence (P28223 whole entry): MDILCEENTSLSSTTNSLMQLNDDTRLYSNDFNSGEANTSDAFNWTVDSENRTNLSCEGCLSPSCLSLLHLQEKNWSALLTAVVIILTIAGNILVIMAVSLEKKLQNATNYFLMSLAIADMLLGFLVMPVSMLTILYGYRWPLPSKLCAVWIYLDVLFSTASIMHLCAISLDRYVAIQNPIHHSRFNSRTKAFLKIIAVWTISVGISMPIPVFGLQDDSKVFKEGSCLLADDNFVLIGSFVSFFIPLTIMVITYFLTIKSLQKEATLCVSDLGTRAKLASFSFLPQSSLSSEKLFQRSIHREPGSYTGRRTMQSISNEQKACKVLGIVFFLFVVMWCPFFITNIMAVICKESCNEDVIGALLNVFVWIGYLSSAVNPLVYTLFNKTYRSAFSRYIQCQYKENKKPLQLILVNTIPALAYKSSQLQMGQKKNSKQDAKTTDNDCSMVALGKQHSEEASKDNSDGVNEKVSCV
Experiment: R-SAT functional receptor assay
Assay type: cell-based
Details: for Emax: 120 h
Method: The functional receptor assay, Receptor Selection and Amplification Technology (R-SAT), was used (with minor modifications from that previously described U.S. Pat. No. 5,707,798) to screen compounds for efficacy at the 5-HT2A receptor. Briefly, NIH3T3 cells were grown in 96 well tissue culture plates to 70-80% confluence. Cells were transfected for 12-16 hours with plasmid DNAs using superfect (Qiagen Inc.) as per manufacture's protocols. R-SAT's were generally performed with 50 ng/well of receptor and 20 ng/well of Beta-galactosidase plasmid DNA. All receptor and G-protein constructs used were in the pSI mammalian expression vector (Promega Inc) as described in U.S. Pat. No. 5,707,798. The 5HT2A receptor gene was amplified by nested PCR from brain cDNA using the oligodeoxynucleotides based on the published sequence (see Saltzman et. al. Biochem. Biophys. Res. Comm. 181:1469-78 (1991)). Large-scale transfections, cells were transfected for 12-16 hours, then trypsinized and frozen in DMSO. Frozen cells were later thawed, plated at 10,000-40,000 cells per well of a 96 well plate that contained drug. With both methods, cells were then grown in a humidified atmosphere with 5% ambient CO2 for five days. Media was then removed from the plates and marker gene activity was measured by the addition of the beta-galactosidase substrate ONPG (in PBS with 5% NP-40). The resulting colorimetric reaction was measured in a spectrophotometric plate reader (Titertek Inc.)at […]. All data were analyzed using the computer program XLFit (IDBSm). Efficacy is the percent maximal repression compared to repression by a control compound (ritanserin in the case of 5HT2A). pIC50 is the negative of the log(IC50), where IC50 is the calculated concentration in Molar that produces 50% maximal repression.
Briefly, the 5-HT2A receptor, and the alpha subunit of the guanine nucleotide binding protein Gq were transiently transfected into NIH3T3 cells and assayed using the functional receptor assay, Receptor Selection and Amplification Technology (R-SAT) essentially as disclosed in U.S. Pat. No. 5,707,798. Each compound was screened at seven serially diluted concentrations in triplicate. Data were analyzed using least squares fit analysis with GraphPad Prism (San Diego, Calif.), and are reported normalized to percent response.
R-SAT assays (as described in Example 42) were carried out with cells transfected with receptors (listed below) to determine the receptor selectivity profile for compound 26HCH16D. 5HT2A inverse agonist data (IC50 nM; % efficacy) were derived from detailed dose response curves (7 points in triplicate).
(§1) The functional receptor assay, Receptor Selection and Amplification Technology (R-SAT), was used (with minor modifications from that previously described U.S. Pat. No. 5,707,798) to screen compounds for efficacy at the 5-HT2A receptor. The RSAT assay was conducted as described herein.
as §1, with “5,707,798, which is incorporated herein by reference in its entirety)” for “5,707,798)”

[1] = compared to ritanserin, read-out: 5HT2A % inhibition
[2] = Table 6, read-out: 5HT2A pIC50 (converted)
[3] = read-out: Percent Efficacy, compared to ritanserin
[4] = Table 3, read-out: pIC50 (converted)
[5] = percent maximal repression compared to ritanserin

Compound: CC(C)COc1ccc(CN2C(=O)OC3(CCN(CC4CC4)CC3)C2Cc2ccc(F)cc2)cc1 (stereo not shown) [Example 38-PH16-HCl, 8-Cyclopropylmethyl-4-(4-fluorobenzyl)-3-(4-isobutoxybenzyl)-1-oxa-3,8-diaza-spiro[4.5]decan-2-one, hydrochloride]
Emax [1]: 95%
IC50 [2]: 7.94 nM

Compound: Cc1ccc(CC2N(Cc3ccc(OC(F)(F)F)cc3)C(=O)OC23CCN(C)CC3)cc1 (stereo not shown) [Example 69NLS21, 8-Methyl-4-(4-methylbenzyl)-3-(4-trifluoromethoxybenzyl)-1-oxa-3,8-diaza-spiro[4.5]decan-2-one, hydrochloride]
Emax [1]: 83%
IC50 [2]: 0.794 nM

Emax [3]: 109%
IC50 [4]: 5.01 nM
Compound: COc1ccc(CC(=O)N(Cc2ccc(C)cc2)C2CCN(C3CCCC3)CC2)cc1 [Example 42ELH75, 2-(4-Methoxyphenyl)-N-(4-methylbenzyl)-N-(1-cyclopentylpiperidin-4-yl)acetamide]

Emax [3]: 94%
IC50 [4]: 6.31 nM
Compound: COc1ccc(CC(=O)N(Cc2ccc(C)cc2)C2CCN(CCC(C)(C)C)CC2)cc1 [Example 26HCH79-5, N-(1-(3,3-Dimethylbutyl)piperidin-4-yl)-N-((4-methylphenyl)methyl)-4-methoxyphenylacetamide]

Emax [3]: 111%
IC50 [4]: 7.94 nM
Compound: COc1ccc(CNC(=O)N(Cc2ccc(C)cc2)C2CCN(C(C)(C)C)CC2)cc1 [Example 58AKU-3, N-(4-Methylbenzyl)-N-(1-t-butylpiperidin-4-yl)-N′-(4-methoxybenzyl)carbamide]

Compound: Cc1ccc(CN(C(=O)NCc2ccccc2)C2CCN(Cc3ccccc3Br)CC2)cc1 [Example 26HCH66-03, N-(1-((2-Bromophenyl)methyl)piperidin-4-yl)-N-((4-methylphenyl)methyl)-N′-phenylmethylcarbamide]
IC50 (pIC50 (average), inverse agonist): 38 nM
Efficacy (average) [5]: 76

Percent Efficacy (compared to ritanserin): 108%
Compound: COc1ccc(CC(=O)N(Cc2ccc(Cl)cc2)C2CCN(C3CCCC3)CC2)cc1 [Example 42ELH91, 2-(4-Methoxyphenyl)-N-(4-chlorbenzyl)-N-(1-cyclopentylpiperidin-4-yl)acetamide]

Compound: CCN1CCC2(CC1)OC(=O)N(Cc1ccc(OCC(C)C)cc1)C2Cc1ccc(F)cc1 (stereo not shown) [Example 38-PH20, 4-(4-Fluorobenzyl)-3-(4-isobutoxybenzyl)-8-ethyl-1-oxa-3,8-diaza-spiro[4.5]decan-2-one, hydrochloride]
Emax [1]: 100%
IC50 [2]: 0.501 nM

Emax [3]: 112%
IC50 [4]: 3.16 nM
Compound: COc1ccc(CNC(=O)N(Cc2ccc(C)cc2)C2CCN(C)CC2)cc1 [Example 47AKU-44, N-(4-Methylbenzyl)-N-(1-methylpiperidin-4-yl)-N′-(4-methoxybenzyl)-carbamide]

Percent Efficacy: 83%
Compound: COc1ccc(CC(=O)N(Cc2ccc(C)cc2)C2CCN(CC3CCCCC3)CC2)cc1 [Example 6HCH79-6, N-(1-(Cyclohexylmethyl)piperidin-4-yl)-N-((4-methylphenyl)methyl)-4-methoxy phenylacetamide]

Efficacy (average): 87
IC50 (inverse agonist, read-out: pIC50 (average) (converted)): 20 nM
Compound: COc1ccc(CC(=O)N(Cc2ccc(F)cc2)C2CCNCC2)cc1 [Example 26HCH80-7, N-((4-Fluorophenyl)methyl)-N-(piperidin-4-yl)-4-methoxyphenylacetamide]

Compound: N-(2-Phenylethyl)-N-(piperidin-4-yl)-4-methoxyphenylmethylacetamide [Example 26HCH80-2]
pIC50 (average) (inverse agonist): 7.78
Efficacy (average) [5]: 89

Emax [3]: 96%
IC50 [4]: 3.98 nM
Compound: COc1ccc(CC(=O)N(CCc2ccc(C)cc2)C2CCN(C)CC2)cc1 [Example 50ELH68, 2-(4-Methoxyphenyl)-N-[2-(4-methylphenyl)ethyl)-N-(1-methylpiperidin-4-yl)acetamide]

Compound: COc1ccc(CC(=O)N(Cc2ccc(C)cc2)C2CCN(Cc3ccccc3O)CC2)cc1 [Example 26HCH79-10, N-(1-((2-Hydroxyphenyl)methyl)piperidin-4-yl)-N-((4-methylphenyl)methyl)-4-methoxyphenylacetamide]
Emax (read-out: Percent Efficacy): 102%
IC50 (pIC50, Table 3): 15.8 nM

Compound: Cc1ccc(CC(=O)N(Cc2ccc(C)cc2)C2CCN(C)CC2)cc1 [Example 57MBT62B, N-((4-methylphenyl)methyl)-N-(1-methylpiperidin-4-yl)-2-(4-methylphenyl)ace tamide hydrochloride]
Emax (read-out: Percent Efficacy): 119%
IC50 [4]: 12.6 nM

Compound: COc1ccc(CC(=O)N(Cc2ccc(C)cc2)C2CCN(Cc3ccccc3)CC2)cc1 [Example 26HCH17, N-((4-Methylphenyl)methyl)-N-(1-(phenylmethyl)piperidin-4-yl)-4-methoxyphenylacetamide hydrochloride]
Emax (read-out: Percent Efficacy): 94%
IC50 (pIC50, Table 3): 5.01 nM

Emax [3]: 103%
IC50 [4]: 6.31 nM
Compound: Cc1ccc(CN(C(=O)NCc2ccccc2)C2CCNCC2)cc1 [Example 26HCH65, N-((4-Methylphenyl)methyl)-N-(piperidin-4-yl)-N′-phenylmethylcarbamide]

Compound: CC(C)COc1ccc(CN2C(=O)OC3(CCNCC3)C2Cc2ccc(F)cc2)cc1 (stereo not shown) [Example 69NLS81, 4-(4-Fluorobenzyl)-3-(4-isobutoxybenzyl)-1-oxa-3,8-diaza-spiro[4.5]decan-2-one, hydrochloride]
Emax [1]: 85%
IC50 [2]: 5.01 nM
